Measured values published in PubChem BioAssay AID248 (DTP/NCI, 2004).
Several values for one entry are separate records, joined by “and”; a condition that tells them apart may be missing. Equal values may be shown once. Inconclusive results and toxic doses are left out.

Test system: L1210 leukemia ip in BDF1 mice, survival T/C
Test: NCI In Vivo Anticancer Drug Screen. Data for tumor model L1210 Leukemia (intraperitoneal) in B6D2F1 (BDF1) mice
Details: endpoint: mean survival time, higher = longer survival
Summary of the method: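 Ratio derived from survival: compound-dosed mice over vehicle-dosed mice, all bearing a transplantable tumor.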

[1] = dose: 100.0 mg/kg/injection, schedule: Q04DX003 (ip), vehicle: saline with Tween-80
[2] = dose: 200.0 mg/kg/injection, schedule: Q04DX003 (ip), vehicle: saline with Tween-80
[3] = dose: 400.0 mg/kg/injection, schedule: Q04DX003 (ip), vehicle: saline with Tween-80
[4] = dose: 100.0 mg/kg/injection, schedule: Q04DX002 (ip), vehicle: Klucel (hydroxypropylcellulose) (HPC)
[5] = dose: 200.0 mg/kg/injection, schedule: Q04DX002 (ip), vehicle: Klucel (hydroxypropylcellulose) (HPC)
[6] = dose: 400.0 mg/kg/injection, schedule: Q04DX002 (ip), vehicle: Klucel (hydroxypropylcellulose) (HPC)
[7] = dose: 50.0 mg/kg/injection, schedule: Q01DX009 (ip), vehicle: saline with Tween-80

## CC(C)Oc1ccc(CC(N)C(=O)O)cc1N(CCCl)CCCl (centres undefined)
dose: 0.44 mg/kg/injection, schedule: Q01DX009 (ip), vehicle: carboxymethylcellulose (CMC)
  T/C: 108 % of control
dose: 0.5 mg/kg/injection, schedule: Q01DX009 (ip), vehicle: saline
  T/C: 120 % of control
dose: 0.6 mg/kg/injection, schedule: Q01DX009 (ip), vehicle: carboxymethylcellulose (CMC)
  T/C: 121 % of control
dose: 0.66 mg/kg/injection, schedule: Q01DX009 (ip), vehicle: carboxymethylcellulose (CMC)
  T/C: 111 % of control
dose: 1.0 mg/kg/injection, schedule: Q01DX009 (ip), vehicle: carboxymethylcellulose (CMC)
  T/C: 124 % of control
dose: 1.0 mg/kg/injection, schedule: Q01DX009 (ip), vehicle: saline
  T/C: 114 % of control
dose: 1.5 mg/kg/injection, schedule: Q01DX001 (ip), vehicle: carboxymethylcellulose (CMC)
  T/C: 108 % of control
dose: 2.0 mg/kg/injection, schedule: Q01DX009 (ip), vehicle: saline
  T/C: 117 % of control
dose: 2.2 mg/kg/injection, schedule: Q01DX001 (ip), vehicle: carboxymethylcellulose (CMC)
  T/C: 114 % of control
dose: 3.3 mg/kg/injection, schedule: Q01DX001 (ip), vehicle: carboxymethylcellulose (CMC)
  T/C: 119 % of control
dose: 3.3 mg/kg/injection, schedule: Q01DX009 (ip), vehicle: carboxymethylcellulose (CMC)
  T/C: 158 % of control
dose: 5.0 mg/kg/injection, schedule: Q01DX001 (ip), vehicle: carboxymethylcellulose (CMC)
  T/C: 114 % of control
dose: 5.0 mg/kg/injection, schedule: Q01DX001 (ip), vehicle: saline with Tween-80
  T/C: 116 % of control
dose: 5.0 mg/kg/injection, schedule: Q01DX009 (ip), vehicle: carboxymethylcellulose (CMC)
  T/C: 164 % of control and 166 % of control
dose: 7.5 mg/kg/injection, schedule: Q01DX001 (ip), vehicle: saline with Tween-80
  T/C: 116 % of control
dose: 7.5 mg/kg/injection, schedule: Q01DX009 (ip), vehicle: carboxymethylcellulose (CMC)
  T/C: 205 % of control
dose: 10.0 mg/kg/injection, schedule: Q01DX001 (ip), vehicle: saline with Tween-80
  T/C: 116 % of control
dose: 10.0 mg/kg/injection, schedule: Q01DX009 (ip), vehicle: carboxymethylcellulose (CMC)
  T/C: 213 % of control
dose: 15.0 mg/kg/injection, schedule: Q01DX001 (ip), vehicle: carboxymethylcellulose (CMC)
  T/C: 124 % of control
dose: 15.0 mg/kg/injection, schedule: Q01DX009 (ip), vehicle: carboxymethylcellulose (CMC)
  T/C: 123 % of control
dose: 25.0 mg/kg/injection, schedule: Q01DX001 (ip), vehicle: Klucel (hydroxypropylcellulose) (HPC)
  T/C: 177 % of control
dose: 30.0 mg/kg/injection, schedule: Q01DX009 (ip), vehicle: saline
  T/C: 90 % of control

## NC(=S)N/N=C/c1cccc2ccccc12
dose: 100.0 mg/kg/injection, schedule: Q04DX002 (ip), vehicle: gum acacia
  T/C: 91 % of control
dose: 200.0 mg/kg/injection, schedule: Q04DX002 (ip), vehicle: gum acacia
  T/C: 98 % of control
dose: 400.0 mg/kg/injection, schedule: Q04DX002 (ip), vehicle: gum acacia
  T/C: 117 % of control

## O=C(O)C(Cc1ccccc1)N1C(=O)C2C3CCC(C3)C2C1=O (centres undefined)
dose: 25.0 mg/kg/injection, schedule: Q04DX003 (ip), vehicle: saline with Tween-80
  T/C: 93 % of control
dose: 50.0 mg/kg/injection, schedule: Q04DX003 (ip), vehicle: saline with Tween-80
  T/C: 93 % of control
[1]
  T/C: 100 % of control and 107 % of control
[2]
  T/C: 110 % of control
[3]
  T/C: 103 % of control

## COc1cc(N=O)c(C(=O)c2nccc3cc(OC)c(OC)cc23)cc1OC
dose: 100.0 mg/kg/injection, schedule: Q01DX001 (ip), vehicle: saline
  T/C: 104 % of control
dose: 200.0 mg/kg/injection, schedule: Q01DX001 (ip), vehicle: saline
  T/C: 91 % of control
dose: 400.0 mg/kg/injection, schedule: Q01DX001 (ip), vehicle: saline
  T/C: 94 % of control

## O=C(Nc1cccc([N+](=O)[O-])c1)c1ccc(C(=O)Nc2cccc([N+](=O)[O-])c2)cc1
[4]
  T/C: 98 % of control
[5]
  T/C: 91 % of control
[6]
  T/C: 86 % of control

## Oc1ccc2ccccc2c1/C=N/Nc1ccc2ccccc2n1
dose: 25.0 mg/kg/injection, schedule: Q01DX001 (ip), vehicle: saline with Tween-80
  T/C: 97 % of control
dose: 50.0 mg/kg/injection, schedule: Q01DX001 (ip), vehicle: saline with Tween-80
  T/C: 101 % of control
dose: 100.0 mg/kg/injection, schedule: Q01DX001 (ip), vehicle: saline with Tween-80
  T/C: 98 % of control

## NCC(O)(c1ccccc1)c1ccccc1
dose: 12.5 mg/kg/injection, schedule: Q01DX009 (ip), vehicle: Klucel (hydroxypropylcellulose) (HPC)
  T/C: 101 % of control
dose: 25.0 mg/kg/injection, schedule: Q01DX009 (ip), vehicle: Klucel (hydroxypropylcellulose) (HPC)
  T/C: 95 % of control
dose: 50.0 mg/kg/injection, schedule: Q01DX009 (ip), vehicle: Klucel (hydroxypropylcellulose) (HPC)
  T/C: 89 % of control
dose: 75.0 mg/kg/injection, schedule: Q01DX001 (ip), vehicle: other
  T/C: 100 % of control

## Cc1c(Cl)cccc1NC(=O)NC(=O)c1ccccc1
[7]
  T/C: 101 % of control
dose: 100.0 mg/kg/injection, schedule: Q01DX009 (ip), vehicle: saline with Tween-80
  T/C: 108 % of control
dose: 200.0 mg/kg/injection, schedule: Q01DX009 (ip), vehicle: saline with Tween-80
  T/C: 97 % of control

## CCOC(=O)c1c(NC(=O)CCl)ssc1=S
[7]
  T/C: 103 % of control
[1]
  T/C: 92 % of control
[2]
  T/C: 91 % of control

## COCn1c2ccccc2c2nc(-c3ccncc3)nc(-c3ccncc3)c21
[4]
  T/C: 98 % of control
[5]
  T/C: 98 % of control
[6]
  T/C: 95 % of control

## O=S(=O)(OCC(O)C1OCOC2COCOC21)c1ccccc1 (centres undefined)
dose: 100.0 mg/kg/injection, schedule: Q01DX001 (ip), vehicle: Klucel (hydroxypropylcellulose) (HPC)
  T/C: 112 % of control
dose: 200.0 mg/kg/injection, schedule: Q01DX001 (ip), vehicle: Klucel (hydroxypropylcellulose) (HPC)
  T/C: 93 % of control
dose: 400.0 mg/kg/injection, schedule: Q01DX001 (ip), vehicle: Klucel (hydroxypropylcellulose) (HPC)
  T/C: 97 % of control

## O=C(C1C2C=CC(C2)C1C(=O)N1CCOCC1)N1CCOCC1 (centres undefined)
[1]
  T/C: 107 % of control
[2]
  T/C: 102 % of control
[3]
  T/C: 107 % of control

## C[n+]1cccc2cccc(C(=O)O)c21
dose: 75.0 mg/kg/injection, schedule: Q01DX001 (ip), vehicle: saline
  T/C: 100 % of control
dose: 150.0 mg/kg/injection, schedule: Q01DX001 (ip), vehicle: saline
  T/C: 94 % of control

## C/C(=N\N=C(N)N)c1ccc(NC(N)=S)cc1
dose: 20.0 mg/kg/injection, schedule: Q01DX005 (ip), vehicle: saline
  T/C: 106 % of control
dose: 40.0 mg/kg/injection, schedule: Q01DX005 (ip), vehicle: saline
  T/C: 97 % of control

## CSc1n[nH]c(/N=N/N(C)C)c1C(N)=O
dose: 100.0 mg/kg/injection, schedule: Q04DX003 (ip), vehicle: Klucel (hydroxypropylcellulose) (HPC)
  T/C: 99 % of control
dose: 200.0 mg/kg/injection, schedule: Q04DX003 (ip), vehicle: Klucel (hydroxypropylcellulose) (HPC)
  T/C: 103 % of control
dose: 400.0 mg/kg/injection, schedule: Q04DX003 (ip), vehicle: Klucel (hydroxypropylcellulose) (HPC)
  T/C: 111 % of control

## O=C(CCCl)Nc1ccc(S(=O)(=O)Nc2nccs2)cc1
dose: 100.0 mg/kg/injection, schedule: Q01DX001 (ip), vehicle: other
  T/C: 101 % of control
dose: 200.0 mg/kg/injection, schedule: Q01DX001 (ip), vehicle: other
  T/C: 95 % of control
dose: 400.0 mg/kg/injection, schedule: Q01DX001 (ip), vehicle: other
  T/C: 97 % of control

## COC(=O)/C=C\C=C(\CBr)C(=O)OC
dose: 6.25 mg/kg/injection, schedule: Q01DX009 (ip), vehicle: saline
  T/C: 104 % of control
dose: 6.25 mg/kg/injection, schedule: Q04DX003 (ip), vehicle: saline sonified
  T/C: 103 % of control
dose: 12.5 mg/kg/injection, schedule: Q01DX009 (ip), vehicle: saline
  T/C: 96 % of control
dose: 12.5 mg/kg/injection, schedule: Q04DX003 (ip), vehicle: saline sonified
  T/C: 97 % of control
dose: 25.0 mg/kg/injection, schedule: Q01DX009 (ip), vehicle: saline
  T/C: 110 % of control
dose: 25.0 mg/kg/injection, schedule: Q04DX003 (ip), vehicle: saline sonified
  T/C: 95 % of control

## CC(C)(O)CC(O)(C(F)(F)F)C(F)(F)F
dose: 6.0 mg/kg/injection, schedule: Q01DX009 (ip), vehicle: other
  T/C: 94 % of control
dose: 12.0 mg/kg/injection, schedule: Q01DX009 (ip), vehicle: other
  T/C: 100 % of control
dose: 25.0 mg/kg/injection, schedule: Q01DX009 (ip), vehicle: other
  T/C: 105 % of control and 106 % of control and 86 % of control
dose: 50.0 mg/kg/injection, schedule: Q01DX009 (ip), vehicle: other
  T/C: 97 % of control
dose: 100.0 mg/kg/injection, schedule: Q01DX009 (ip), vehicle: other
  T/C: 98 % of control
